The nature of data set [1]: Stability test of the solid dispersion comprising vitamin D (cholecalciferol content by HPLC, 60° C. dried oven). The data set is classed as physicochemical. The procedure:
The time-dependent change of the cholecalciferol content of each test material was analyzed using the solid dispersions prepared in Comparative Example 2 (0.07 mg of cholecalciferol) and Examples 1 to 4 as test materials, during the period of incubating the test materials in a 60° C. dried oven.
Each test material was pretreated as follows, before the analysis of cholecalciferol.
Each test material was taken in the amount corresponding to about 28 mg cholecalciferol and placed in a 50 ml flask, 5 ml of 0.01 M HCl was added thereto, the mixture was ultrasonicated for 3 minutes, and the flask was filled with ethanol. 15 ml of the resulting solution was mixed with 5 ml of purified water and 20 ml of n-hexane for 5 minutes, and centrifuged at 2000 rpm for 5 minutes. 10 ml of the supernatant was harvested, evaporated under a reduced pressure, and 2 ml of n-hexane was added thereto. The cholecalciferol content of each test material was analyzed by HPLC under the following conditions. The results are shown in Table 7. • Column: silica column (5 μm, 4.6 mm×250 mm) • Mobile phase: (chloroform: n-hexane: tetrahydrofuran=650:350:10 (v/v)) • Injecting volume: 100 μl • Flow rate: 1.0 ml/min • Detector: ultraviolet spectrophotometer (wavelength: 254 nm; L-7400, HITACHI, Japan)

The conditions of data set [2]: preserved at 40° C. for 4 days; cited from earlier work.

The source of these data is patent publication US20100048511A1, “COMPLEX FORMULATION FOR PREVENTING OR TREATING OSTEOPOROSIS WHICH COMPRISES SOLID DISPERSION OF VITAMIN D OR ITS DERIVATIVE AND BISPHOSPHONATE” (priority 2006, published 2010).

Turning to `C=C1CC[C@H](O)C/C1=C/C=C1\CCC[C@]2(C)[C@@H]([C@H](C)CCCC(C)C)CC[C@@H]12` [Comparative Example 2, cholecalciferol], the cholecalciferol content in data set [1] (2 weeks) is listed as 3.3%; in data set [1] (4 weeks), 0.0%; in data set [1] (incubation time 0) it was 100%.

On to `C=C1CC[C@H](O)C/C1=C/C=C1\CCC[C@]2(C)[C@@H]([C@H](C)CCCC(C)C)CC[C@@H]12` [vitamin D3, cholecalciferol], for which the “content of vitamin D3 in the formulation, of the original content” value in data set [2] was “about 86.3%”.
